{
  "source": "patent US20180320177A1",
  "about": "“COMPOSITIONS AND METHODS FOR THE TREATMENT OF LIVER FIBROSIS” (UNIVERSITY OF CONNECTICUT, priority 2015, published 2018)",
  "key": {"[1]": {"target": "T1, HMGB1 protein (Mus musculus, UniProt P63158)", "T1 construct": "Total protein lysates were prepared from livers and cells in lysis buffer; from tissue; host or cells: mouse liver", "T1 sequence (P63158 1-215)": "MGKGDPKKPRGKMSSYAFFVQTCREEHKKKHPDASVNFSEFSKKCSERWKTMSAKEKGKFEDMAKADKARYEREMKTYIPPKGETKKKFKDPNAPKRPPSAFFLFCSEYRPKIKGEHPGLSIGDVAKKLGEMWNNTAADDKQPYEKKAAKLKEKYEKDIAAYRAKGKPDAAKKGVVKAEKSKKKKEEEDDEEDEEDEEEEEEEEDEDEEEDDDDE", "experiment": "Western blot of HMGB1 protein in liver of CCl4-treated mice", "type": "in vivo", "conditions": "CCl4+ICM (FIG. 16)", "description": "Animal Care: All animal care and experimental procedures were approved by the Institutional Animal Care and Use Committee at the University of Connecticut. Shp^−/− mice were described previously. Hmgb2^−/− mice were obtained from Dr. Stella Tsirka at Stony Brook University. C57BL/6J mice were purchased from Jackson Laboratory. All mice were maintained on a 12-h light/dark cycle with free access to food and water unless otherwise indicated. For CCl4 treatment, CCl4 (Sigma) was dissolved in corn oil and administered to mice at a dose of 850 μl/kg BW by intraperitoneal injection (IP) twice a week for 6 or 10 weeks with or without ICM. Age-matched control mice were treated with a corn oil vehicle. For CCl4+ICM treatment, mice were treated with CCl4 for 2 weeks and then ICM (Department of Pharmaceutical Sciences at UConn) was dissolved in PEG (Sigma) and treated with mice (10 mg/kg) every day for 4 or 8 weeks in combination with CCl4. To induce overexpression of HMGB2 in liver, AAV8-Hmgb2 or a control AAV8-GFP was given to mice by tail vein injection at a dose of 5×10^10 GC. To knockdown HMGB2 in mouse livers, AAV-shHmgb2 or a control AAV-shGFP was delivered to mice at a dose of 2×10^10 GC by tail vein injection. One week later, mice injected with AAVs were treated with CCl4 or CCl4 +ICM as described above and sacrificed. […]"}, "[2]": {"system": "Smad signaling", "experiment": "Smad signaling in LX2 cells (Western blot)", "type": "cell-based, human", "conditions": "LX2 cells (FIG. 5C)", "description": "Western Blotting: Total protein lysates were prepared from livers and cells in lysis buffer containing 50 mM Tris, pH 8.0, 1% Nonidet™ P-40, 150 mM NaCl, 0.5% sodium deoxycholate, 0.1% SDS with protease inhibitors (Thermo Fisher Scientific) and subjected to immunoblotting. Nuclear and cytoplasmic subcellular fractions were prepared using NE-PER nuclear and cytoplasmic extraction reagents (Pierce) according to the manufacturer's instructions. The blot was incubated with a primary antibody, followed by a secondary antibody conjugated to horseradish peroxidase. ECL kit (Pierce) was used to detect the reactivity. The following antibodies were obtained from Cell Signaling Technology: HMGB2, HMGB1, AKT, p-AKT, mTOR, p-mTOR, ERK1/2, pERK1/2, Raptor, Rictor, p53, p21, p-Bad, Smad4, p-Smad2/3, Lamin A/C, a-SMA, MMP2, MMP9, TIMP1, RhoA, Rho-GTP, Cdc42, Rac1/2/3. Anti-HA antibody and anti-beta actin antibody were purchased from Sigma and Santa Cruz Biotechnology, respectively.\nCell Lines The LX-2 human stellate cell line was maintained in Dulbecco's Modified Eagle's Medium (DMEM) supplemented with 2% fetal bovine serum (FBS), 100 IU/ml penicillin, and 100 μg/ml streptomycin. Human hepatocellular carcinoma (HCC) MHCC97H cells were maintained in DMEM supplemented with 10% FBS, 100 IU/ml penicillin, and 100 μg/ml streptomycin, 1 mM HEPES, 1 mM sodium pyruvate, 2 mM L-glutamine. […]"}, "[3]": {"target": "T2, HMGB2 (Homo sapiens, UniProt P26583)", "T2 sequence (P26583 1-209)": "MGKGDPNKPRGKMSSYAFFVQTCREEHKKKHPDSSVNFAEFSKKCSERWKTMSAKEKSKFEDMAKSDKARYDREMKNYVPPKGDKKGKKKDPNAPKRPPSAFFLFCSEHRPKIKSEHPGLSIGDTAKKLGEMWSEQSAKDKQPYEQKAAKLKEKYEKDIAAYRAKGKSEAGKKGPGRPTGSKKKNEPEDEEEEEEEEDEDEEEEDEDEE", "experiment": "Co-immunoprecipitation of acetylated / phosphorylated HMGB2 in LX-2 cells", "type": "cell-based", "parameters": "Total protein lysates were prepared from livers and cells in lysis buffer; endogenous in cells; host or cells: LX-2", "conditions": "CCl4 and ICM for 24 hours (FIG. 5D)", "description": "Co-immunoprecipitation experiments: LX-2 cells were transfected with a vector expressing HA-CBP with X-treineGENE™ transfection reagent (Sigma). 24 hours later, cells were treated with CCl4 and ICM for 24 hours. Cells then washed 2 times with cold phosphate buffered saline (PBS), lysed in buffer (50 mM Tris HCl, pH 7.4, 150 mM NaCl, 1 mM EDTA, and 1% TRITON X-1.00, and protease inhibitor). Protein extracts were incubated with anti-phosphoserin antibody or anti-acetylated lysin antibody (Cell signaling technology) overnight at 4° C. Protein A/G beads were added to the supernatants and incubated for 4 hours at 4° C. The beads were washed five times in NP-40 lysis buffer. Immune complexes were eluted by SDS—sample buffer, resolved on 10% SDS-PAGE and proceeded for immunoblotting with the indicated antibody."}},
  "data": [
    {"smiles": "CC1(C)Oc2cc(O)ccc2C2C1=CCn1c(=O)n(-c3ccccc3)c(=O)n12", "note": "(stereo not shown) [ICM, inflachromene]", "values": [
      {"measurement": "HMGB1 protein", "setting": "[1]", "value": "less effect on HMGB1 protein"},
      {"measurement": "Smad signaling", "setting": "[2]", "value": "decreases Smad signaling"},
      {"measurement": "HMGB2 phosphorylation by CCl4", "setting": "[3]", "value": "decreases"},
      {"measurement": "HMGB2 acetylation by CBP/CCl4", "setting": "[3]; HA-CBP", "value": "decreases"}
    ]}
  ]
}
